Measurements reported in patent publication US11684650B2, “Composition for preventing, alleviating, or treating cachexia and muscle loss” (CHUNG-ANG UNIVERSITY INDUSTRY ACADEMIC COOPERATION …, priority 2018, dated 2023).

Columns and labels:
Assay type in all cases: in vivo, C57BL/6 mice
TNF-α, IL-6, MCP-1 = experiment: Serum and muscle inflammatory cytokine ELISA, LLC tumor-bearing mice; conditions: oral 14 days, extract 100 mg/kg, Megace 125 mg/kg, mean ± standard deviation
Experimental: The mice were divided into a normal group (healthy group), a control group (tumor-induced group), a conventional drug-administered group and a Paeoniae radix extract-administered group, each group consisting of 9 animals. Each animal of the normal group was injected subcutaneously with 100 μl of PBS, and the tumor-induced group (control group), the conventional drug-administered group and the Paeoniae radix extract-administered group were injected subcutaneously with MC38 colorectal cancer cells (1×10^6 cells/100 μl) or Lewis lung carcinoma (LLC) cells (1×10^6 cells/100 μl). When the tumor volume reached about 1,000 mm^3 after 2 weeks of tumor induction, the cancer cachexia treatment agent Megace (megestrol acetate), which is most frequently used in current clinical practice, was administered orally to the conventional drug-administered group. Dose of Megace was 125 mg/kg (=625 mg [daily human dose]/60 kg [human's average body weight]×12 [human/mouse body surface area dose equivalent factor]) for 14 days. Paeoniae radix extract prepared in Example 1 was administered orally to the Paeoniae radix extract-administered group for 14 days at a dose of 100 mg/kg, which is slightly lower than the dose of Megace. During the experiment, the food uptake of each mouse was recorded. In addition, the muscle strength of each mouse was measured with a grip strength test device (Bioseb, USA), and the endurance of each mouse was measured under the condition of maximum exercise time of 600 seconds using a treadmill device (Columbus Instrument, USA).
After completion of the experiment, the mice were euthanized, blood was collected therefrom, and then the tumor weight and the hind limb muscle weight were measured, and the serum and muscle concentrations of TNF-α, IL-6, IL-1 and MCP-1 were quantified by ELISA assay. In addition, the effect of the Paeoniae radix extract on the reduction of muscle atrophy factor (MAFbx) in the hind limb muscle of each LCC cancer-bearing mouse was measured using Western blot and immunofluorescence known in the art.
After the Paeoniae radix extract was administered orally to the mice for 14 days after tumor induction, the mice were euthanized and the serum and muscle concentrations of inflammatory cytokines were measured. As a result, as shown in Table 4 below and FIGS. 2 and 8, the concentrations of tumor-induced inflammatory cytokines increased in the control group (tumor-induced group) compared to the normal (healthy) group.

[1] = test system: mice with tumors induced by MC38 colorectal cancer cells; experiment: Food intake of MC38 tumor-bearing mice; conditions: oral 14 days, extract 100 mg/kg, Megace 125 mg/kg, mean ± standard deviation
Experimental: (§1) As experimental animals, 4-week-old male C57BL/6 mice (weighed 18 to 20 g) were purchased from Central Lab Animal Inc., acclimated in a laboratory animal facility for 1 week, and then used in the experiment. During the experiment, the animals were allowed to access feed and water ad libitum, and housed at cages at a temperature of 22±2° C. and a relative humidity of 60±5% under a 12-hr light/12-hr dark cycle.
(§2) The mice were divided into a normal group (healthy group), a control group (tumor-induced group), a conventional drug-administered group and a Paeoniae radix extract-administered group, each group consisting of 9 animals. […] During the experiment, the food uptake of each mouse was recorded. In addition, the muscle strength of each mouse was measured with a grip strength test device (Bioseb, USA), and the endurance of each mouse was measured under the condition of maximum exercise time of 600 seconds using a treadmill device (Columbus Instrument, USA).
(§3) While the Paeoniae radix extract was administered orally to the mice for 14 days after tumor induction, the food intake of the mice was recorded. […]

[2] = test system: mice with tumors induced by MC38 colorectal cancer cells; experiment: Treadmill running time test, MC38 tumor-bearing mice; conditions: maximum 600 seconds, day 12 of oral treatment, extract 100 mg/kg, Megace 125 mg/kg, mean ± standard deviation
Experimental: as §2, with “animals. Each animal of the normal group was injected subcutaneously with 100 μl of PBS, and the tumor-induced group (control group), the conventional drug-administered group and the Paeoniae radix extract-administered group were injected subcutaneously with MC38 colorectal cancer cells (1×10^6 cells/100 μl) or Lewis lung carcinoma (LLC) cells (1×10^6 cells/100 μl).” for “animals.”
(§4) On day 12th day of the oral treatment of conventional drug or the Paeoniae radix extract to the tumor-induced mice, the muscle strength and endurance of the mice were measured by a grip strength (g) test and a treadmill running time (sec) test, respectively.

[3] = test system: mice with tumors induced by Lewis lung carcinoma (LLC) cells; experiment: Food intake and body weight of LLC tumor-bearing mice; conditions: oral 14 days, extract 100 mg/kg, Megace 125 mg/kg, mean ± standard deviation
Experimental: as §1, §2, §3

[4] = test system: Lewis lung carcinoma (LLC) cells; experiment: Tumor weight, LLC tumor-bearing mice; conditions: oral 14 days, extract 100 mg/kg, Megace 125 mg/kg, mean ± standard deviation
Experimental: as §2, with “animals. Each animal of the normal group was injected subcutaneously with 100 μl of PBS, and the tumor-induced group (control group), the conventional drug-administered group and the Paeoniae radix extract-administered group were injected subcutaneously with MC38 colorectal cancer cells (1×10^6 cells/100 μl) or Lewis lung carcinoma (LLC) cells (1×10^6 cells/100 μl).” for “animals.”
(§5) After completion of the experiment, the mice were euthanized, blood was collected therefrom, and then the tumor weight and the hind limb muscle weight were measured, and the serum and muscle concentrations of TNF-α, IL-6, IL-1 and MCP-1 were quantified by ELISA assay. […]
(§6) After the Paeoniae radix extract was administered orally to the mice for 14 days after tumor induction, the mice were euthanized and the tumor weight was measured. […]

[5] = test system: mice with tumors induced by MC38 colorectal cancer cells; experiment: Grip strength test, MC38 tumor-bearing mice; conditions: grip strength on day 12 of oral treatment, extract 100 mg/kg, Megace 125 mg/kg, mean ± standard deviation
Experimental: as §2, with “animals. Each animal of the normal group was injected subcutaneously with 100 μl of PBS, and the tumor-induced group (control group), the conventional drug-administered group and the Paeoniae radix extract-administered group were injected subcutaneously with MC38 colorectal cancer cells (1×10^6 cells/100 μl) or Lewis lung carcinoma (LLC) cells (1×10^6 cells/100 μl).” for “animals.”
as §4

[6] = test system: mice with tumors induced by Lewis lung carcinoma (LLC) cells; experiment: Treadmill running time test, LLC tumor-bearing mice; conditions: maximum 600 seconds, day 12 of oral treatment, extract 100 mg/kg, Megace 125 mg/kg, mean ± standard deviation
Experimental: as §2, with “animals. Each animal of the normal group was injected subcutaneously with 100 μl of PBS, and the tumor-induced group (control group), the conventional drug-administered group and the Paeoniae radix extract-administered group were injected subcutaneously with MC38 colorectal cancer cells (1×10^6 cells/100 μl) or Lewis lung carcinoma (LLC) cells (1×10^6 cells/100 μl).” for “animals.”
as §4

IL-6 = experiment: Serum and muscle inflammatory cytokine ELISA, MC38 tumor-bearing mice; conditions: oral 14 days, extract 100 mg/kg, Megace 125 mg/kg, mean ± standard deviation
Experimental: as §2, with “animals. Each animal of the normal group was injected subcutaneously with 100 μl of PBS, and the tumor-induced group (control group), the conventional drug-administered group and the Paeoniae radix extract-administered group were injected subcutaneously with MC38 colorectal cancer cells (1×10^6 cells/100 μl) or Lewis lung carcinoma (LLC) cells (1×10^6 cells/100 μl).” for “animals.”
as §5
After the Paeoniae radix extract was administered orally to the mice for 14 days after tumor induction, the mice were euthanized and the serum and muscle concentrations of inflammatory cytokines were measured. […]

[7] = test system: mice with tumors induced by Lewis lung carcinoma (LLC) cells; experiment: Grip strength test, LLC tumor-bearing mice; conditions: grip strength on day 12 of oral treatment, extract 100 mg/kg, Megace 125 mg/kg, mean ± standard deviation
Experimental: as §2, with “animals. Each animal of the normal group was injected subcutaneously with 100 μl of PBS, and the tumor-induced group (control group), the conventional drug-administered group and the Paeoniae radix extract-administered group were injected subcutaneously with MC38 colorectal cancer cells (1×10^6 cells/100 μl) or Lewis lung carcinoma (LLC) cells (1×10^6 cells/100 μl).” for “animals.”
as §4

[8] = test system: MC38 colorectal cancer cells; experiment: Tumor weight, MC38 tumor-bearing mice; conditions: oral 14 days, extract 100 mg/kg, Megace 125 mg/kg, mean ± standard deviation
Experimental: as §2, with “animals. Each animal of the normal group was injected subcutaneously with 100 μl of PBS, and the tumor-induced group (control group), the conventional drug-administered group and the Paeoniae radix extract-administered group were injected subcutaneously with MC38 colorectal cancer cells (1×10^6 cells/100 μl) or Lewis lung carcinoma (LLC) cells (1×10^6 cells/100 μl).” for “animals.”
as §5, §6

What does the source list for CC(=O)O[C@]1(C(C)=O)CC[C@H]2[C@@H]3C=C(C)C4=CC(=O)CC[C@]4(C)[C@H]3CC[C@@]21C [Conventional drug, megestrol acetate]?
Cytokine concentration, Muscle TNF-α (TNF-α, IL-6, MCP-1): 21.910 ± 5.414 pg/mL; Cytokine concentration, Serum IL-6 (TNF-α, IL-6, MCP-1): 15.616 ± 8.902 pg/mL; Cytokine concentration, Serum MCP-1 (TNF-α, IL-6, MCP-1): 431.670 ± 191.640 pg/mL; Cytokine concentration, Serum TNF-α (TNF-α, IL-6, MCP-1): 3.302 ± 0.422 pg/mL; Food intake [1]: 2.607 ± 0.357 g; Endurance [2]: 177.400 ± 60.844 s; Food intake [3]: 2.891 ± 0.417 g; Tumor weight [4]: 7.797 ± 2.385 g; Muscle strength [5]: 172.065 ± 28.210 g; Endurance [6]: 338.333 ± 157.322 s; Cytokine concentration, Muscle IL-6 (IL-6): 156.167 ± 29.486 pg/mL; Cytokine concentration, Serum IL-6 (IL-6): 49.222 ± 22.762 pg/mL; Muscle strength [7]: 154.883 ± 17.238 g; Tumor weight [8]: 11.747 ± 3.073 g
